Results taken from PubChem BioAssay AID2060488 (Molecular Pharmacology Branch, DTP, NCI, 2025).
One block for each molecule: values may come before it.

Tested on: 966289-007-R4-J1-PDC complex spheroid viability
Assay: Anticancer human tumor 966289-007-R4-J1-PDC patient-derived pancreatic adenocarcinoma cell line growth inhibition [GQUAD]
Details: for IC50: curve of first compound; for viability, T/C: stronger effect = lower value
Outline: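 Viability of tumor cells grown as complex spheroids with endothelial and stromal cells, exposed to drug combinations. Top concentration at or near clinical Cmax (else 10 microM), diluted in half-log increments.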

[1] = second compound 0.0316 µM, first compound 0.0316 µM
[2] = second compound 0.0316 µM, first compound 0.1 µM
[3] = second compound 0.0316 µM, first compound 0.316 µM
[4] = second compound 0.0316 µM, first compound 1 µM
[5] = second compound 0.0316 µM, first compound 3.16 µM
[6] = second compound 0.0316 µM, first compound 10 µM
[7] = second compound 0.1 µM, first compound 0.0316 µM
[8] = second compound 0.1 µM, first compound 0.1 µM
[9] = second compound 0.1 µM, first compound 0.316 µM
[10] = second compound 0.1 µM, first compound 1 µM
[11] = second compound 0.1 µM, first compound 3.16 µM
[12] = second compound 0.1 µM, first compound 10 µM
[13] = second compound 0.316 µM, first compound 0.0316 µM
[14] = second compound 0.316 µM, first compound 0.1 µM
[15] = second compound 0.316 µM, first compound 0.316 µM
[16] = second compound 0.316 µM, first compound 1 µM
[17] = second compound 0.316 µM, first compound 3.16 µM
[18] = second compound 0.316 µM, first compound 10 µM
[19] = second compound 1 µM, first compound 0.0316 µM
[20] = second compound 1 µM, first compound 0.1 µM
[21] = second compound 1 µM, first compound 0.316 µM
[22] = second compound 1 µM, first compound 1 µM
[23] = second compound 1 µM, first compound 3.16 µM
[24] = second compound 1 µM, first compound 10 µM
[25] = second compound 3.16 µM, first compound 0.0316 µM
[26] = second compound 3.16 µM, first compound 0.1 µM
[27] = second compound 3.16 µM, first compound 0.316 µM
[28] = second compound 3.16 µM, first compound 1 µM
[29] = second compound 3.16 µM, first compound 3.16 µM
[30] = second compound 3.16 µM, first compound 10 µM
[31] = second compound 10 µM, first compound 0.0316 µM
[32] = second compound 10 µM, first compound 0.1 µM
[33] = second compound 10 µM, first compound 0.316 µM
[34] = second compound 10 µM, first compound 1 µM
[35] = second compound 10 µM, first compound 3.16 µM
[36] = second compound 10 µM, first compound 10 µM
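Note: spheroids exposed to the agents for seven days before readout.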
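Throughout, for viability, T/C: percent viability relative to DMSO vehicle control wells taken as 100%.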

Compound: COc1ncnc(C2CC2)c1-c1ncc2cnn(Cc3ccc(-c4nc(C(F)(F)F)cn4C(C)C)cc3)c2n1 + Cc1[nH]c2ccc(F)cc2c1-c1nc2c3cccnc3c3ncccc3c2[nH]1
IC50 (second compound 0.0316 µM): > 10000 nM
IC50 (second compound 0.1 µM): > 10000 nM
IC50 (second compound 0.316 µM): > 10000 nM
IC50 (second compound 1 µM): > 10000 nM
IC50 (second compound 3.16 µM): > 10000 nM
IC50 (second compound 10 µM): > 10000 nM
viability, T/C [1]: 106%
viability, T/C [2]: 99.2%
viability, T/C [3]: 104%
viability, T/C [4]: 99.7%
viability, T/C [5]: 104%
viability, T/C [6]: 107%
viability, T/C [7]: 106%
viability, T/C [8]: 105%
viability, T/C [9]: 104%
viability, T/C [10]: 99.6%
viability, T/C [11]: 100%
viability, T/C [12]: 107%
viability, T/C [13]: 101%
viability, T/C [14]: 99.8%
viability, T/C [15]: 107%
viability, T/C [16]: 100%
viability, T/C [17]: 102%
viability, T/C [18]: 96.5%
viability, T/C [19]: 98.2%
viability, T/C [20]: 105%
viability, T/C [21]: 107%
viability, T/C [22]: 104%
viability, T/C [23]: 108%
viability, T/C [24]: 110%
viability, T/C [25]: 107%
viability, T/C [26]: 106%
viability, T/C [27]: 108%
viability, T/C [28]: 108%
viability, T/C [29]: 109%
viability, T/C [30]: 110%
viability, T/C [31]: 107%
viability, T/C [32]: 104%
viability, T/C [33]: 109%
viability, T/C [34]: 104%
viability, T/C [35]: 111%
viability, T/C [36]: 111%

Compound: O=C(NO)c1cnc(N2CCN(S(=O)(=O)c3ccc4ccccc4c3)CC2)nc1 + Cc1[nH]c2ccc(F)cc2c1-c1nc2c3cccnc3c3ncccc3c2[nH]1
IC50 (second compound 0.0316 µM): 682 nM
IC50 (second compound 0.1 µM): 847 nM
IC50 (second compound 0.316 µM): 1170 nM
IC50 (second compound 1 µM): 1250 nM
IC50 (second compound 3.16 µM): 943 nM
IC50 (second compound 10 µM): 948 nM
viability, T/C [1]: 100%
viability, T/C [2]: 96.8%
viability, T/C [3]: 112%
viability, T/C [4]: 23.5%
viability, T/C [5]: 1.82%
viability, T/C [6]: 0.49%
viability, T/C [7]: 104%
viability, T/C [8]: 97.4%
viability, T/C [9]: 110%
viability, T/C [10]: 41%
viability, T/C [11]: 1.2%
viability, T/C [12]: 0.14%
viability, T/C [13]: 103%
viability, T/C [14]: 97.2%
viability, T/C [15]: 110%
viability, T/C [16]: 57.5%
viability, T/C [17]: 3.37%
viability, T/C [18]: 0.12%
viability, T/C [19]: 94.7%
viability, T/C [20]: 102%
viability, T/C [21]: 115%
viability, T/C [22]: 61.3%
viability, T/C [23]: 4.62%
viability, T/C [24]: 0.3%
viability, T/C [25]: 101%
viability, T/C [26]: 111%
viability, T/C [27]: 111%
viability, T/C [28]: 46.9%
viability, T/C [29]: 3.24%
viability, T/C [30]: 0.41%
viability, T/C [31]: 112%
viability, T/C [32]: 104%
viability, T/C [33]: 115%
viability, T/C [34]: 47.1%
viability, T/C [35]: 2.05%
viability, T/C [36]: 0.25%

IC50 (second compound 0.0316 µM): > 10000 nM
IC50 (second compound 0.1 µM): < 31.6 nM
IC50 (second compound 0.316 µM): < 31.6 nM
IC50 (second compound 1 µM): < 31.6 nM
IC50 (second compound 3.16 µM): < 31.6 nM
IC50 (second compound 10 µM): < 31.6 nM
Compound: COc1ncnc(C2CC2)c1-c1ncc2cnn(Cc3ccc(-c4nc(C(F)(F)F)cn4C(C)C)cc3)c2n1 + Cc1cnc(CNC(=O)c2c(=O)c3ccc(N4CCCN(C)CC4)nc3n3c2sc2ccccc23)cn1
viability, T/C [1]: 105%
viability, T/C [2]: 94.2%
viability, T/C [3]: 103%
viability, T/C [4]: 92.9%
viability, T/C [5]: 101%
viability, T/C [6]: 97.3%
viability, T/C [7]: 24.4%
viability, T/C [8]: 24.1%
viability, T/C [9]: 25.3%
viability, T/C [10]: 23.8%
viability, T/C [11]: 26.4%
viability, T/C [12]: 29.3%
viability, T/C [13]: 9.38%
viability, T/C [14]: 10.1%
viability, T/C [15]: 9.14%
viability, T/C [16]: 10.4%
viability, T/C [17]: 10.8%
viability, T/C [18]: 10.4%
viability, T/C [19]: 6.44%
viability, T/C [20]: 5.74%
viability, T/C [21]: 6.97%
viability, T/C [22]: 5.21%
viability, T/C [23]: 5.65%
viability, T/C [24]: 7.13%
viability, T/C [25]: 4.34%
viability, T/C [26]: 4.38%
viability, T/C [27]: 4.76%
viability, T/C [28]: 4.44%
viability, T/C [29]: 5.14%
viability, T/C [30]: 5.37%
viability, T/C [31]: 0.08%
viability, T/C [32]: 0.13%
viability, T/C [33]: 0.17%
viability, T/C [34]: 0.16%
viability, T/C [35]: 0.4%
viability, T/C [36]: 0.41%
